The source of these data is patent US12583861B2, “Derivatives of imidazo[4,5-d]pyridazine, their preparation and their therapeutic application” (SANOFI, priority 2021, dated 2026).

Each structure is given as a SMILES string.

This experiment addresses T1, human TLR7 (Homo sapiens, UniProt Q9NYK1).
T1 construct: host or cells: HEK293 (HEK-Blue hTLR7)
T1 sequence (Q9NYK1 27-1049): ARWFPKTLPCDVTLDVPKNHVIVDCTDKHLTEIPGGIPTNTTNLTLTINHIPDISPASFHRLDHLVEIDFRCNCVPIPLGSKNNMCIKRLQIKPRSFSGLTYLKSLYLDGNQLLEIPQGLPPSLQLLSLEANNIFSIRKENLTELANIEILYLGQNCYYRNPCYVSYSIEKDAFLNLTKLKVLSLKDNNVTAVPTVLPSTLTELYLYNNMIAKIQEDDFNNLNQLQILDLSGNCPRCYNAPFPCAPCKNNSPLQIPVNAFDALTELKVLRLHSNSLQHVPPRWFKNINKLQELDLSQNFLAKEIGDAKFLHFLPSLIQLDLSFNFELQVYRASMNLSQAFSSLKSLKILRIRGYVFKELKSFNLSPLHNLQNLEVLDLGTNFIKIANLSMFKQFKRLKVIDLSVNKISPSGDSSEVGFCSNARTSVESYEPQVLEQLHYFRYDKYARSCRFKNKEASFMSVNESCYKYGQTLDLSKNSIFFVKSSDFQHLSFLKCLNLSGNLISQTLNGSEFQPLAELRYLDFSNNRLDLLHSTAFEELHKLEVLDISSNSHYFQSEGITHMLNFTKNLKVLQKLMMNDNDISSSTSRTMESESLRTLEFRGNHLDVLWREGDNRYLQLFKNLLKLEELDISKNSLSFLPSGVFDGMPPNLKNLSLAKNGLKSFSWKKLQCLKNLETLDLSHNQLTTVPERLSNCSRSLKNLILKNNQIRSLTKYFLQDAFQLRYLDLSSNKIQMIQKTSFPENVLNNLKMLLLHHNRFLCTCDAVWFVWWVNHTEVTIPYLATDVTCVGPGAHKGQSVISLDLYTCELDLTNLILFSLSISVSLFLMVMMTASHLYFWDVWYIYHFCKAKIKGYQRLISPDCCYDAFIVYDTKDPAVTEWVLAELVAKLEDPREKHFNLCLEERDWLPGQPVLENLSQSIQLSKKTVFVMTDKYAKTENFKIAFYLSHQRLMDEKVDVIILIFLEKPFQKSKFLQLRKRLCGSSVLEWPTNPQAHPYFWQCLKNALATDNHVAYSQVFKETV
Put plainly: HEK-Blue hTLR7 reporter cell assay (SEAP, NF-kB/AP-1) for stimulation of human TLR7. As to conditions: HEK-Blue hTLR7 cells, 24 h incubation, SEAP readout; read-out: TLR7_EC50. It is filed as cell-based. In outline: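 HEK293 cells expressing hTLR7 with NF-κB/AP-1-driven SEAP reporter, seeded 3.10E4 cells/well, pre-incubated 18–24 h, then exposed to 3-fold compound dilutions (0.01–20 μM) for 24 h at 37 °C. Supernatant SEAP read with QUANTI-Blue; EC50 as concentration giving 50% activation.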
With `CCCCc1nc2c(N)nnc(OC(C)C)c2n1Cc1ccccn1` [Compound 75, 2-butyl-7-isopropoxy-1-(pyridin-2-ylmethyl)-1H-imidazo[4,5-d]pyridazin-4-amine], the EC50 turned out to be 179 nM. Under `CCCCc1nc2c(N)nnc(OC(C)C)c2n1Cc1ccc(OC)cc1` [Compound 1, 2-butyl-7-isopropoxy-1-(4-methoxybenzyl)-1H-imidazo[4,5-d]pyridazin-4-amine] stands 103 nM. Take `CCCCc1nc2c(N)nnc(NCCOC)c2n1Cc1ccc(OC)cc1` [Compound 49, 2-butyl-1-(4-methoxybenzyl)-N7-(2-methoxyethyl)-1H-imidazo[4,5-d]pyridazine-4,7-diamine]: the EC50 amounted to 353 nM. Under `CCCCc1nc2c(N)nnc(NC(C)C)c2n1Cc1ccc(OC)cc1` [Compound 2, 2-butyl-N7-isopropyl-1-(4-methoxybenzyl)-1H-imidazo[4,5-d]pyridazin-4,7-diamine] stands 53 nM; under `CCCCc1nc2c(N)nnc(N3CCCC3)c2n1Cc1ccc(OC)cc1` [Compound 10, 2-butyl-1-(4-methoxybenzyl)-7-(pyrrolidin-1-yl)-1H-imidazo[4,5-d]pyridazin-4-amine], 120 nM. Then `CCCCc1nc2c(N)nnc(N(C)C)c2n1Cc1ccc(OC)cc1` [Compound 71, 2-butyl-1-(4-methoxybenzyl)-N7,N7-dimethyl-1H-imidazo[4,5-d]pyridazine-4,7-diamine], with 291 nM.

With `CCCCc1nc2c(N)nnc(N(C)C)c2n1C` [Compound 41, 2-butyl-N7,N7,1-trimethyl-1H-imidazo[4,5-d]pyridazine-4,7-diamine], the EC50 was found to be 3070 nM. Under `CCCCc1nc2c(N)nnc(OC(C)C)c2n1Cc1ccc(CO)cc1` [Compound 35, (4-((4-amino-2-butyl-7-isopropoxy-1H-imidazo[4,5-d]pyridazin-1-yl)methyl)phenyl)methanol] stands 106 nM; under `CCCCc1nc2c(N)nnc(OCCOC)c2n1Cc1ccc(OC)cc1` [Compound 4, 2-butyl-1-(4-methoxybenzyl)-7-(2-methoxyethoxy)-1H-imidazo[4,5-d]pyridazin-4-amine], 1260 nM. Consider `CCCCc1nc2c(N)nnc(OC(C)C)c2n1Cc1cccc(CN)c1` [Compound 33, 1-(3-(aminomethyl)benzyl)-2-butyl-7-isopropoxy-1H-imidazo[4,5-d]pyridazin-4-amine 2,2,2-trifluoroacetate], for which the EC50 came to 392 nM. Under `CCCCc1nc2c(N)nnc(OCC)c2n1Cc1ccc(OC)cc1` [Compound 48, 2-butyl-7-ethoxy-1-(4-methoxybenzyl)-1H-imidazo[4,5-d]pyridazin-4-amine] stands 160 nM; under `CCCCc1nc2c(N)nnc(OC(C)C)c2n1Cc1ccc(CN)cc1` [Compound 22, 1-(4-(aminomethyl)benzyl)-2-butyl-7-isopropoxy-1H-imidazo[4,5-d]pyridazin-4-amine 2,2,2-trifluoroacetate], 30 nM. Then `C=C(C)c1nnc(N)c2nc(CCCC)n(Cc3ccc(OC)cc3)c12` [Compound 17, 2-butyl-1-(4-methoxybenzyl)-7-(prop-1-en-2-yl)-1H-imidazo[4,5-d]pyridazin-4-amine], with 155 nM. Under `CCCCc1nc2c(N)nnc(SC(C)C)c2n1Cc1ccc(OC)cc1` [Compound 3, 2-butyl-7-(isopropylthio)-1-(4-methoxybenzyl)-1H-imidazo[4,5-d]pyridazin-4-amine] stands 566 nM.

Turning to `CCCCc1nc2c(N)nnc(OC(C)C)c2n1C[C@H]1CCC[C@@H](N)C1` (racemic) [Compound 23, 1-(((1S,3R)-3-aminocyclohexyl)methyl)-2-butyl-7-isopropoxy-1H-imidazo[4,5-d]pyridazin-4-amine (and enantiomer)], the EC50 came to 172 nM. In the case of `CCCCc1nc2c(N)nnc(OC3CCCC3)c2n1Cc1ccc(OC)cc1` [Compound 9, 2-butyl-7-(cyclopentyloxy)-1-(4-methoxybenzyl)-1H-imidazo[4,5-d]pyridazin-4-amine], the EC50 was determined as 135 nM. Then `CCCCc1nc2c(N)nnc(C(C)C)c2n1Cc1ccc(OC)cc1` [Compound 18, 2-butyl-7-isopropyl-1-(4-methoxybenzyl)-1H-imidazo[4,5-d]pyridazin-4-amine], with 355 nM; and `C=CCOc1nnc(N)c2nc(CCCC)n(Cc3ccc(OC)cc3)c12` [Compound 6, 7-(allyloxy)-2-butyl-1-(4-methoxybenzyl)-1H-imidazo[4,5-d]pyridazin-4-amine], with 295 nM. Under `CCCCc1nc2c(N)nnc(OC(C)C)c2n1Cc1ccc(C=O)cc1` [Compound 34, 4-((4-amino-2-butyl-7-isopropoxy-1H-imidazo[4,5-d]pyridazin-1-yl)methyl)benzaldehyde] stands 116 nM; under `CCCCc1nc2c(N)nnc(N3CCC(c4ccccc4)C3)c2n1C` (stereo not shown) [Compound 89, 2-butyl-1-methyl-7-(3-phenylpyrrolidin-1-yl)-1H-imidazo[4,5-d]pyridazin-4-amine], 1200 nM.

With `CCCCc1nc2c(N)nnc(OC(C)C)c2n1Cc1ccc(CN)cc1` [Compound 21, 1-(4-(aminomethyl)benzyl)-2-butyl-7-isopropoxy-1H-imidazo[4,5-d]pyridazin-4-amine], the EC50 was determined as 33 nM. For `CCCCc1nc2c(N)nnc(-c3cc[nH]c3)c2n1Cc1ccc(OC)cc1` [Compound 14, 2-butyl-1-(4-methoxybenzyl)-7-(1H-pyrrol-3-yl)-1H-imidazo[4,5-d]pyridazin-4-amine], the EC50 is 219 nM.
